{
  "source": "patent US8637484B2",
  "about": "“Modulation of growth hormone receptor expression and insulin-like growth factor expression” (Antisense Therapeutic Limited, priority 2003, dated 2014)",
  "key": {"[1]": {"test_system": "mouse growth hormone receptor mRNA", "experiment": "Inhibition of mouse growth hormone receptor mRNA levels in b.END cells, quantitative real-time PCR", "assay_type": "cell-based", "conditions": "dose-response studies"}, "growth hormone receptor": {"test_system": "growth hormone receptor", "experiment": "[125I] hGH specific binding assay on liver microsomal membranes of treated mice", "assay_type": "in vivo, mouse", "protocol": "Specific binding assays were carried out with liver tissue using iodinated human growth hormone [^125I] hGH.\nMicrosomal membrane preparations were obtained as follows. 400 mg of tissue powder was homogenized in cold homogenizing buffer (50 mM Tris/HCl, 250 mM sucrose, pH 7.4). This was centrifuged at 2000 rpm for 10 min at 3° C. and the supernatant was saved. This was centrifuged again at 15,000 rpm for 20 min. Pellets were resuspended in 0.5 ml of RRA buffer with inhibitor (50 mM Tris, 20 mM MgC12, pH 7.4). Microsomal preparation samples were stored at −80° C. until the specific binding assay.\nThe [^125I] hGH specific binding assay was done as follows. Four glass tubes were set up for each sample, two for (−), two for (+). Different sample and solutions were added in each tube as follows (i) 0.2 ml RRA buffer (50 mM Tris, 20 mM MgCl2, 0.1% BSA, pH 7.4); (ii) 0.1 ml membrane (1/2 or 1/4 dilution); (iii) 0.1 ml bGH (10 μg/ml) for the (+) tube or 0.1 ml RRA buffer for the (−) tube; and (iv) 0.1 ml [^125I]-hGH tracer.\nSamples were incubated at 4° C. with shaking overnight. The reaction was stopped with 2.5 ml of cold RRA, and the sample centrifuged at 2800 rpm for 25 min at 4° C. Supernatant was aspirated and pellets counted using the γ-counter. The specific binding capacity was calculated as: CPM(−)-CPM(+) Protein content of the microsomal samples was determined by the BCA protein assay."}, "[2]": {"conditions": "30 mg/kg every second day for one week, liver membranes"}},
  "note": "In the oligonucleotide strings, read from the 5' end, every base follows the letter of its sugar. An asterisk marks phosphorothioate; unmarked linkages are phosphodiester. Other units and linkages are bracketed, terminal groups are in braces. A string of capitals states the bases alone. e = 2'-O-(2-methoxyethyl) (MOE); [5mC] = 5-methylcytosine; d = 2'-deoxy (DNA)",
  "data": [
    {"substance": "acaaagatccatacctgaga (eA*e[5mC]*eA*eA*eA*dG*dA*dT*d[5mC]*d[5mC]*dA*dT*dA*d[5mC]*d[5mC]*eT*eG*eA*eG*eA; antisense) [ISIS 227446]", "values": [
      {"measurement": "IC50", "setting": "[1]", "result": "~25", "unit": "nM"},
      {"measurement": "reduction of specific binding compared to saline, ¼ dilution", "setting": "growth hormone receptor; 30 mg/kg", "result": 39, "unit": "%"},
      {"measurement": "reduction of specific binding compared to saline, ½ dilution", "setting": "growth hormone receptor; 30 mg/kg", "result": 26, "unit": "%"},
      {"measurement": "Specific binding/mg protein (cpm) ¼ dilution", "setting": "growth hormone receptor; [2]", "result": "5546 ± 789", "unit": "cpm"},
      {"measurement": "Specific binding/mg protein (cpm) ½ dilution", "setting": "growth hormone receptor; [2]", "result": "4205 ± 534", "unit": "cpm"},
      {"measurement": "growth hormone receptor levels (growth hormone binding activity), % of control (saline) group", "setting": "growth hormone receptor; 30 mg/kg sc every second day for one week", "result": 61, "unit": "%"},
      {"measurement": "growth hormone receptor levels, % of the control (mismatch) group", "setting": "growth hormone receptor; 30 mg/kg, ½ dilution experiment", "result": 59, "unit": "%"}
    ]}
  ]
}
